In patent US20090155352A1, “Microemulsion containing indolocarbazole compound and dosage forms containing the same” (Cephalon, Inc., priority 2007, published 2009):
≈ marks a conversion by molar mass, not a printed value.

Columns and labels:
[1] = AIBN forced degradation screen of antioxidants in lestaurtinib microemulsions; assay type: physicochemical; conditions: AIBN screening; for antioxidant effect against oxidation of lestaurtinib microemulsion: first experiment, thirteen formulations
Procedure: Various antioxidants were evaluated for their effectiveness in relation to the composition of the invention. In an initial experiment, capsules containing a lestaurtinib composition prepared according to the invention were placed on accelerated stability conditions. Several impurities were determined (LC-MS) to be related to the oxidation of lestaurtinib. Subsequently, a forced degradation experiment was performed using the radical initiator azoisobutyronitrile (AIBN) adapted for use with lestaurtinib. This was based on the fact that AIBN radical initiates the autoxidation mechanism that the majority of active ingredients follow for oxidation.
Using AIBN as a screening tool, a series of microemulsions prepared in accordance with the invention were formulated using different antioxidants to identify suitable solutions for preventing degradation of the composition. The first experiment used thirteen formulations using several classes of antioxidants (i.e., oxygen scavengers, sacrificial antioxidants and H-atom donors) to determine which reaction pathway was critical for disrupting the oxidation process. From this first experiment, several antioxidants were identified as efficacious: ascorbic acid, vitamin E, BHA and BHT.
A second experiment was then performed based on the information obtained from the first experiment. The second experiment evaluated combinations of antioxidants from different classes, different isomers of the same antioxidants, and mixtures of water-soluble and oil-soluble antioxidants.

[2] = Water solubility of lestaurtinib; assay type: physicochemical; conditions: at 22° C.
[3] = Maximum solubility of lestaurtinib in prior solid state solution / SEDDS formulations; conditions: vehicle 25% PEG 400, 25% PEG 1000, 50% MYRJ 52, no added water
Excerpt: This formulation was a self-emulsifying drug delivery system (SEDDS) comprised of a blend of polyoxyethylene glycols (PEGs) and MYRJ® 52 (polyoxyethylene 40 stearate surfactant available from Croda N.A., Parsippany, N.J.).

[4] = Solubilized concentration of lestaurtinib in microemulsion formed with added water
Procedure: In one embodiment, microemulsions containing solubilized indolocarbazole compounds, e.g., lestaurtinib, can be prepared using the hydrophilic component and water in the excipient composition but without the presence of the surfactant, e.g., MYRJ®. In one example, a composition without surfactant was prepared as follows. Lestaurtinib 120 mg was weighed into a glass vial and 2 mL of molten PEG-1450 was added.

[5] = microemulsion with water addition

Q: For `COc1ccc(O)c(C(C)(C)C)c1` [BHA, butylhydroxyanisole], which “antioxidant effect against oxidation of lestaurtinib microemulsion” value (shortened to “antioxidant effect against oxidation”) [1] is on record?
A: efficacious

Q: Which “antioxidant effect against oxidation” value [1] does the source give for `O=C1O[C@H]([C@@H](O)CO)C(O)=C1O` [ascorbic acid] here?
A: efficacious

Q: For `C[C@]12O[C@H](C[C@]1(O)CO)n1c3ccccc3c3c4c(c5c6ccccc6n2c5c31)CNC4=O` [lestaurtinib, [9S-(9α,10β,12α)]-2,3,9,10,11,12-hexahydro-10-hydroxy-10-(hydroxymethyl)-9-methyl-9,12-epoxy-1H-diindolo[1,2,3-fg:3′,2′,1′-kl]pyrrolo[3,4-i][1,6]benzodiazocin-1-one], which solubility [2] is on record?
A: 1.7 µg/mL (≈ 3.87 µM)

Q: And the “maximum solubility obtainable in SEDDS formulation” value [3]?
A: about 29 mg/g

Q: What about the “final concentration of lestaurtinib in clear solution” value ([4]; Example 13, PEG-1450 and water, without surfactant, by HPLC) of the same compound?
A: 59.2 mg/mL

Q: What about the “solubilized concentration achieved using the invention” value [4, 5] of the same compound?
A: 87 mg/g

Q: What about the “solubilized concentration achieved using the invention (total composition weight)” value [4, 5] of the same compound?
A: about 9%

Q: Which “effect on impurity levels in final formulation” value ([1]; second experiment) does the source give for `O=S([O-])S(=O)(=O)[O-].[K+].[K+]` [potassium metabisulfite] here?
A: decreased the overall impurity levels

Q: For vitamin E, which “antioxidant effect against oxidation” value [1] is on record?
A: efficacious
